{"source": "ChEMBL document CHEMBL5528040", "about": "“Design and Synthesis of Novel 3-Nitro-1H-1,2,4-triazole-1,2,3-triazole-1,4-disubstituted Analogs as Promising Antitrypanosomatid Agents: Evaluation of In Vitro Activity against Chagas Disease and Leishmaniasis” (J Med Chem, 2024)", "key": {"[1]": {"tested_on": "Trypanosoma cruzi", "assay": "Antitrypanosomal activity against Trypanosoma cruzi Tulahuen amastigotes transfected with Escherichia coli beta-galactosidase LacZ gene infected in monkey LLC-MK2 cells assessed as inhibition of amastigotes growth incubated for 72 hrs by absorbance based microplate reader analysis", "assay_type": "functional, organism-based", "conditions": "LLC-MK2, 72 h"}, "[2]": {"tested_on": "Leishmania amazonensis", "assay": "Antileishmanial activity against Leishmania amazonensis IFLA/BR/1967/PH8 amastigotes infected in murine peritoneal macrophages incubated for 24 hrs by Giemsa staining based analysis", "assay_type": "functional, organism-based", "conditions": "IFLA/BR/1967/PH8, Peritoneal macrophage"}, "[3]": {"assay": "Mutagenicity in Salmonella typhimurium TA98 assessed as number of revertant colonies at 50 ug per plate incubated for 90 mins by AMES test (reference value: 22.67 +/- 0.58)", "assay_type": "toxicity, Salmonella enterica subsp. enterica serovar Typhimurium", "conditions": "in vivo, 1.5 h, dose 50 µg"}, "[4]": {"assay": "Mutagenicity in Salmonella typhimurium TA98 assessed as number of revertant colonies at 150 ug per plate incubated for 90 mins by AMES test (reference value: 22.67 +/- 0.58)", "assay_type": "toxicity, Salmonella enterica subsp. enterica serovar Typhimurium", "conditions": "in vivo, 1.5 h, dose 150 µg"}, "[5]": {"assay": "Mutagenicity in Salmonella typhimurium TA98 assessed as number of revertant colonies at 500 ug per plate incubated for 90 mins in presence of S9 fraction by AMES test (reference value: 21.00 +/- 1.00)", "assay_type": "toxicity, subcellular, Salmonella enterica subsp. enterica serovar Typhimurium", "conditions": "s9, 1.5 h, dose 500 µg"}, "[6]": {"assay": "Mutagenicity in Salmonella typhimurium TA98 assessed as number of revertant colonies at 5000 ug per plate incubated for 90 mins in presence of S9 fraction by AMES test (reference value: 21.00 +/- 1.00)", "assay_type": "toxicity, subcellular, Salmonella enterica subsp. enterica serovar Typhimurium", "conditions": "s9, 1.5 h, dose 5000 µg"}, "[7]": {"assay": "Mutagenicity in Salmonella typhimurium TA100 assessed as number of revertant colonies at 5000 ug per plate incubated for 90 mins by AMES test (reference value: 88.00 +/- 2.65)", "assay_type": "toxicity, Salmonella enterica subsp. enterica serovar Typhimurium", "conditions": "in vivo, 1.5 h, dose 5000 µg"}, "[8]": {"assay": "Mutagenicity in Salmonella typhimurium TA100 assessed as number of revertant colonies at 50 ug per plate incubated for 90 mins in presence of S9 fraction by AMES test (reference value: 122.67 +/- 5.03)", "assay_type": "toxicity, subcellular, Salmonella enterica subsp. enterica serovar Typhimurium", "conditions": "s9, 1.5 h, dose 50 µg"}, "[9]": {"assay": "Mutagenicity in Salmonella typhimurium TA100 assessed as number of revertant colonies at 150 ug per plate incubated for 90 mins in presence of S9 fraction by AMES test (reference value: 122.67 +/- 5.03)", "assay_type": "toxicity, subcellular, Salmonella enterica subsp. enterica serovar Typhimurium", "conditions": "s9, 1.5 h, dose 150 µg"}, "[10]": {"assay": "Mutagenicity in Salmonella typhimurium TA100 assessed as number of revertant colonies at 5000 ug per plate incubated for 90 mins in presence of S9 fraction by AMES test (reference value: 122.67 +/- 5.03)", "assay_type": "toxicity, subcellular, Salmonella enterica subsp. enterica serovar Typhimurium", "conditions": "s9, 1.5 h, dose 5000 µg"}, "[11]": {"assay": "Mutagenicity in Salmonella typhimurium TA102 assessed as number of revertant colonies at 150 ug per plate incubated for 90 mins by AMES test (reference value: 110.67 +/- 20.15)", "assay_type": "toxicity, Salmonella enterica subsp. enterica serovar Typhimurium", "conditions": "in vivo, 1.5 h, dose 150 µg"}, "[12]": {"assay": "Mutagenicity in Salmonella typhimurium TA102 assessed as number of revertant colonies at 500 ug per plate incubated for 90 mins by AMES test (reference value: 110.67 +/- 20.15)", "assay_type": "toxicity, Salmonella enterica subsp. enterica serovar Typhimurium", "conditions": "in vivo, 1.5 h, dose 500 µg"}, "[13]": {"assay": "Mutagenicity in Salmonella typhimurium TA102 assessed as number of revertant colonies at 5000 ug per plate incubated for 90 mins by AMES test (reference value: 110.67 +/- 20.15)", "assay_type": "toxicity, Salmonella enterica subsp. enterica serovar Typhimurium", "conditions": "in vivo, 1.5 h, dose 5000 µg"}, "[14]": {"assay": "Mutagenicity in Salmonella typhimurium TA102 assessed as number of revertant colonies at 150 ug per plate incubated for 90 mins in presence of S9 fraction by AMES test (reference value: 130.00 +/- 6.93)", "assay_type": "toxicity, subcellular, Salmonella enterica subsp. enterica serovar Typhimurium", "conditions": "s9, 1.5 h, dose 150 µg"}, "[15]": {"assay": "Mutagenicity in Salmonella typhimurium TA102 assessed as number of revertant colonies at 1500 ug per plate incubated for 90 mins in presence of S9 fraction by AMES test (reference value: 130.00 +/- 6.93)", "assay_type": "toxicity, subcellular, Salmonella enterica subsp. enterica serovar Typhimurium", "conditions": "s9, 1.5 h, dose 1500 µg"}, "[16]": {"assay": "Mutagenicity in Salmonella typhimurium TA98 assessed as mutagenic index ratio at 500 ug per plate incubated for 90 mins by AMES test", "assay_type": "toxicity, Salmonella enterica subsp. enterica serovar Typhimurium", "conditions": "in vivo, 1.5 h, dose 500 µg"}, "[17]": {"assay": "Mutagenicity in Salmonella typhimurium TA98 assessed as mutagenic index ratio at 1500 ug per plate incubated for 90 mins by AMES test", "assay_type": "toxicity, Salmonella enterica subsp. enterica serovar Typhimurium", "conditions": "in vivo, 1.5 h, dose 1500 µg"}, "[18]": {"assay": "Mutagenicity in Salmonella typhimurium TA98 assessed as mutagenic index ratio at 50 ug per plate incubated for 90 mins in presence of S9 fraction by AMES test", "assay_type": "toxicity, subcellular, Salmonella enterica subsp. enterica serovar Typhimurium", "conditions": "s9, 1.5 h, dose 50 µg"}, "[19]": {"assay": "Mutagenicity in Salmonella typhimurium TA98 assessed as mutagenic index ratio at 500 ug per plate incubated for 90 mins in presence of S9 fraction by AMES test", "assay_type": "toxicity, subcellular, Salmonella enterica subsp. enterica serovar Typhimurium", "conditions": "s9, 1.5 h, dose 500 µg"}, "[20]": {"assay": "Mutagenicity in Salmonella typhimurium TA98 assessed as mutagenic index ratio at 1500 ug per plate incubated for 90 mins in presence of S9 fraction by AMES test", "assay_type": "toxicity, subcellular, Salmonella enterica subsp. enterica serovar Typhimurium", "conditions": "s9, 1.5 h, dose 1500 µg"}, "[21]": {"assay": "Mutagenicity in Salmonella typhimurium TA98 assessed as mutagenic index ratio at 5000 ug per plate incubated for 90 mins in presence of S9 fraction by AMES test", "assay_type": "toxicity, subcellular, Salmonella enterica subsp. enterica serovar Typhimurium", "conditions": "s9, 1.5 h, dose 5000 µg"}, "[22]": {"assay": "Mutagenicity in Salmonella typhimurium TA100 assessed as mutagenic index ratio at 50 ug per plate incubated for 90 mins by AMES test", "assay_type": "toxicity, Salmonella enterica subsp. enterica serovar Typhimurium", "conditions": "in vivo, 1.5 h, dose 50 µg"}, "[23]": {"assay": "Mutagenicity in Salmonella typhimurium TA100 assessed as mutagenic index ratio at 500 ug per plate incubated for 90 mins by AMES test", "assay_type": "toxicity, Salmonella enterica subsp. enterica serovar Typhimurium", "conditions": "in vivo, 1.5 h, dose 500 µg"}, "[24]": {"assay": "Mutagenicity in Salmonella typhimurium TA100 assessed as mutagenic index ratio at 1500 ug per plate incubated for 90 mins by AMES test", "assay_type": "toxicity, Salmonella enterica subsp. enterica serovar Typhimurium", "conditions": "in vivo, 1.5 h, dose 1500 µg"}, "[25]": {"assay": "Mutagenicity in Salmonella typhimurium TA100 assessed as mutagenic index ratio at 5000 ug per plate incubated for 90 mins by AMES test", "assay_type": "toxicity, Salmonella enterica subsp. enterica serovar Typhimurium", "conditions": "in vivo, 1.5 h, dose 5000 µg"}, "[26]": {"assay": "Mutagenicity in Salmonella typhimurium TA100 assessed as mutagenic index ratio at 150 ug per plate incubated for 90 mins in presence of S9 fraction by AMES test", "assay_type": "toxicity, subcellular, Salmonella enterica subsp. enterica serovar Typhimurium", "conditions": "s9, 1.5 h, dose 150 µg"}, "[27]": {"assay": "Mutagenicity in Salmonella typhimurium TA100 assessed as mutagenic index ratio at 500 ug per plate incubated for 90 mins in presence of S9 fraction by AMES test", "assay_type": "toxicity, subcellular, Salmonella enterica subsp. enterica serovar Typhimurium", "conditions": "s9, 1.5 h, dose 500 µg"}, "[28]": {"assay": "Mutagenicity in Salmonella typhimurium TA100 assessed as mutagenic index ratio at 1500 ug per plate incubated for 90 mins in presence of S9 fraction by AMES test", "assay_type": "toxicity, subcellular, Salmonella enterica subsp. enterica serovar Typhimurium", "conditions": "s9, 1.5 h, dose 1500 µg"}, "[29]": {"assay": "Mutagenicity in Salmonella typhimurium TA102 assessed as mutagenic index ratio at 50 ug per plate incubated for 90 mins by AMES test", "assay_type": "toxicity, Salmonella enterica subsp. enterica serovar Typhimurium", "conditions": "in vivo, 1.5 h, dose 50 µg"}, "[30]": {"assay": "Mutagenicity in Salmonella typhimurium TA102 assessed as mutagenic index ratio at 150 ug per plate incubated for 90 mins by AMES test", "assay_type": "toxicity, Salmonella enterica subsp. enterica serovar Typhimurium", "conditions": "in vivo, 1.5 h, dose 150 µg"}, "[31]": {"assay": "Mutagenicity in Salmonella typhimurium TA102 assessed as mutagenic index ratio at 5000 ug per plate incubated for 90 mins by AMES test", "assay_type": "toxicity, Salmonella enterica subsp. enterica serovar Typhimurium", "conditions": "in vivo, 1.5 h, dose 5000 µg"}, "[32]": {"assay": "Mutagenicity in Salmonella typhimurium TA102 assessed as mutagenic index ratio at 500 ug per plate incubated for 90 mins in presence of S9 fraction by AMES test", "assay_type": "toxicity, subcellular, Salmonella enterica subsp. enterica serovar Typhimurium", "conditions": "s9, 1.5 h, dose 500 µg"}, "[33]": {"assay": "Mutagenicity in Salmonella typhimurium TA102 assessed as mutagenic index ratio at 1500 ug per plate incubated for 90 mins in presence of S9 fraction by AMES test", "assay_type": "toxicity, subcellular, Salmonella enterica subsp. enterica serovar Typhimurium", "conditions": "s9, 1.5 h, dose 1500 µg"}}}
{"smiles": "O=[N+]([O-])c1ncn(Cc2cn(-c3ccc(OC(F)(F)F)cc3)nn2)n1", "values": [{"measurement": "IC50", "setting": "[1]", "value": 0.09, "unit": "µM"}, {"measurement": "IC50", "setting": "[2]", "value": 4.7, "unit": "µM"}, {"measurement": "Activity", "setting": "[3]", "value": 18.33}, {"measurement": "Activity", "setting": "[4]", "value": 24.67}, {"measurement": "Activity", "setting": "[5]", "value": 23.33}, {"measurement": "Activity", "setting": "[6]", "value": 15.33}, {"measurement": "Activity", "setting": "[7]", "value": 80.67}, {"measurement": "Activity", "setting": "[8]", "value": 121.33}, {"measurement": "Activity", "setting": "[9]", "value": 117.33}, {"measurement": "Activity", "setting": "[10]", "value": 47}, {"measurement": "Activity", "setting": "[11]", "value": 159.33}, {"measurement": "Activity", "setting": "[12]", "value": 159.67}, {"measurement": "Activity", "setting": "[13]", "value": 143.67}, {"measurement": "Activity", "setting": "[14]", "value": 172.33}, {"measurement": "Activity", "setting": "[15]", "value": 178.67}, {"measurement": "Ratio", "setting": "[16]", "value": 0.9}, {"measurement": "Ratio", "setting": "[17]", "value": 0.8}, {"measurement": "Ratio", "setting": "[18]", "value": 1}, {"measurement": "Ratio", "setting": "[19]", "value": 1.1}, {"measurement": "Ratio", "setting": "[20]", "value": 1}, {"measurement": "Ratio", "setting": "[21]", "value": 0.7}, {"measurement": "Ratio", "setting": "[22]", "value": 1.1}, {"measurement": "Ratio", "setting": "[23]", "value": 0.9}, {"measurement": "Ratio", "setting": "[24]", "value": 0.9}, {"measurement": "Ratio", "setting": "[25]", "value": 0.9}, {"measurement": "Ratio", "setting": "[26]", "value": 0.9}, {"measurement": "Ratio", "setting": "[27]", "value": 1}, {"measurement": "Ratio", "setting": "[28]", "value": 0.8}, {"measurement": "Ratio", "setting": "[29]", "value": 1.9}, {"measurement": "Ratio", "setting": "[30]", "value": 1.4}, {"measurement": "Ratio", "setting": "[31]", "value": 1.2}, {"measurement": "Ratio", "setting": "[32]", "value": 1.4}, {"measurement": "Ratio", "setting": "[33]", "value": 1.3}]}
